Experimental data taken from article PMC5666153, “Klebsiella pneumoniae Carbapenemase-2 (KPC-2), Substitutions at Ambler Position Asp179, and Resistance to Ceftazidime-Avibactam: Unique Antibiotic-Resistant Phenotypes Emerge from β-Lactamase Protein Engineering” (mBio, 2017).
Values after ≈ are worked out from the molar mass of the structure shown. Like-named read-outs stand apart in the source and are kept apart here.

Experiments:
Test in all cases: microbe, parasite or virus in culture
E. coli DH10B pBC SK = tested on: T1, E. coli DH10B pBC SK; design: species or system bacterial strain of the line; Mueller-Hinton agar-dilution MIC, CLSI; concentration at which bacterial growth was no longer observed; settings: Escherichia coli, empty vector pBC SK
T1 construct: DH10B carries empty vector pBC SK
Procedure: (§1) Mueller-Hinton (MH) agar-dilution MIC measurements were performed according to Clinical and Laboratory Standards Institute (CLSI) guidelines as previously described ([12], [30]). The MICs are reported as the concentrations at which bacterial growth was no longer observed. Avibactam was tested at a constant 4 µg/ml in combination with its respective antibiotic partners. All MIC measurements were performed at least three times. The impact of site-saturation mutagenesis at Ambler position 179 of KPC-2 on antibiotic resistance was next assessed using whole-cell viability assays. Twenty-four different β-lactam and β-lactam–β-lactamase inhibitor combinations were tested for susceptibility against KPC-2 and the 19 variants expressed in E. coli DH10B cells (Tables 1 and 2). The Klebsiella pneumoniae KPC-2-containing positive-control strain maintained resistance (as defined by Clinical and Laboratory Standards Institute [CLSI] criteria) against all the commercially available β-lactams tested (Table 1).

E. coli DH10B = tested on: T2, E. coli DH10B; design: species or system bacterial strain of the line; Mueller-Hinton agar-dilution MIC, CLSI; concentration at which bacterial growth was no longer observed; settings: Escherichia coli
T2 construct: DH10B
Procedure: as §1

[1] = tested on: T3, blaKPC-2 179 Asp (WT) in E. coli DH10B; design: species or system E. coli DH10B / K. pneumoniae; Mueller-Hinton agar dilution MIC, CLSI, no visible growth; settings: Escherichia coli
T3 construct: DH10B expressing blaKPC-2 (wild type)
Procedure: Mueller-Hinton (MH) agar-dilution MIC measurements were performed according to Clinical and Laboratory Standards Institute (CLSI) guidelines as previously described ([12], [30]). The MICs are reported as the concentrations at which bacterial growth was no longer observed. Avibactam was tested at a constant 4 µg/ml in combination with its respective antibiotic partners. All MIC measurements were performed at least three times.

K. pneumoniae KPC-2 = tested on: T4, K. pneumoniae KPC-2; design: species or system bacterial strain of the line; Mueller-Hinton agar-dilution MIC, CLSI; concentration at which bacterial growth was no longer observed; settings: Klebsiella pneumoniae
T4 construct: KPC-2-producing control strain, also producing TEM-1 and SHV-29

[2] = BAL, read-out: MIC(s) (µg/ml) / BAL

C[C@H]1[C@H](NC(=O)/C(=N\OC(C)(C)C(=O)O)c2csc(N)n2)C(=O)N1S(=O)(=O)O [AZT, aztreonam]
MIC (E. coli DH10B pBC SK; DH10BPBCSK, read-out: MIC(s) (µg/ml) / AZT): 0.06 µg/mL
MIC (E. coli DH10B; DH10B, read-out: MIC(s) (µg/ml) / AZT): 0.06 µg/mL

C[C@@H](O)[C@H]1C(=O)N2C(C(=O)O)=C(S[C@@H]3CN[C@H](C(=O)N(C)C)C3)[C@H](C)[C@H]12 [meropenem]
MIC (E. coli DH10B pBC SK; DH10BPBCSK, read-out: MIC(s) (µg/ml) / MEM): ≤ 0.06 µg/mL
MIC (E. coli DH10B; DH10B, read-out: MIC(s) (µg/ml) / MEM): ≤ 0.06 µg/mL
MIC ([1]; read-out: MIC(s) (µg/ml) / MEM): 0.06 µg/mL
MIC (K. pneumoniae KPC-2; KPC2, read-out: MIC(s) (µg/ml) / MEM): 16 µg/mL (≈ 41.7 µM)

C[C@@H](O)[C@H]1C(=O)N2C(C(=O)O)=C(SCCN=CN)C[C@H]12 [IMI, imipenem]
MIC (E. coli DH10B pBC SK; DH10BPBCSK, read-out: MIC(s) (µg/ml) / IMI): 0.5 µg/mL
MIC (E. coli DH10B; DH10B, read-out: MIC(s) (µg/ml) / IMI): 0.5 µg/mL
MIC ([1]; read-out: MIC(s) (µg/ml) / IMI): 1 µg/mL
MIC (K. pneumoniae KPC-2; KPC2, read-out: MIC(s) (µg/ml) / IMI): 16 µg/mL (≈ 53.4 µM)

C[C@@H](O)[C@H]1C(=O)N2C(C(=O)O)=C(S[C@@H]3CN[C@H](CNS(N)(=O)=O)C3)[C@H](C)[C@H]12 [doripenem]
MIC (E. coli DH10B pBC SK; DH10BPBCSK, read-out: MIC(s) (µg/ml) / DOR): ≤ 0.06 µg/mL
MIC (E. coli DH10B; DH10B, read-out: MIC(s) (µg/ml) / DOR): ≤ 0.06 µg/mL
MIC ([1]; read-out: MIC(s) (µg/ml) / DOR): 0.125 µg/mL
MIC (K. pneumoniae KPC-2; KPC2, read-out: MIC(s) (µg/ml) / DOR): 8 µg/mL (≈ 19 µM)

CO/N=C(\C(=O)N[C@@H]1C(=O)N2C(C(=O)[O-])=C(C[N+]3(C)CCCC3)CS[C@H]12)c1csc(N)n1 [cefepime]
MIC (E. coli DH10B pBC SK; DH10BPBCSK, read-out: MIC(s) (µg/ml) / FEP): ≤ 0.125 µg/mL
MIC (E. coli DH10B; DH10B, read-out: MIC(s) (µg/ml) / FEP): ≤ 0.125 µg/mL
MIC ([1]; read-out: MIC(s) (µg/ml) / FEP): 0.125 µg/mL
MIC (K. pneumoniae KPC-2; KPC2, read-out: MIC(s) (µg/ml) / FEP): 64 µg/mL (≈ 133 µM)

CC1(C)S[C@@H]2[C@H](NC(=O)[C@H](N)c3ccccc3)C(=O)N2[C@H]1C(=O)O [ampicillin]
MIC (E. coli DH10B pBC SK; DH10BPBCSK, read-out: MIC(s) (µg/ml) / AMP): 4 µg/mL
MIC (E. coli DH10B; DH10B, read-out: MIC(s) (µg/ml) / AMP): 8 µg/mL
MIC ([1]; read-out: MIC(s) (µg/ml) / AMP): 64 µg/mL
MIC (K. pneumoniae KPC-2; KPC2, read-out: MIC(s) (µg/ml) / AMP): > 8190 µg/mL

CC1(C)[C@H](NC(=O)/C(=N\OCc2cc(=O)c(O)cn2O)c2csc(N)n2)C(=O)N1OS(=O)(=O)O [BAL30072]
MIC (E. coli DH10B pBC SK; [2]): ≤ 0.06 µg/mL
MIC (E. coli DH10B; [2]): ≤ 0.06 µg/mL
MIC [1, 2]: ≤ 0.06 µg/mL
MIC (K. pneumoniae KPC-2; [2]): 8 µg/mL (≈ 15.4 µM)

C[C@@H](O)[C@H]1C(=O)N2C(C(=O)O)=C(S[C@@H]3CN[C@H](C(=O)Nc4cccc(C(=O)O)c4)C3)[C@H](C)[C@H]12 [ertapenem]
MIC (E. coli DH10B pBC SK; DH10BPBCSK, read-out: MIC(s) (µg/ml) / ERT): ≤ 0.03 µg/mL
MIC (E. coli DH10B; DH10B, read-out: MIC(s) (µg/ml) / ERT): ≤ 0.03 µg/mL
MIC ([1]; read-out: MIC(s) (µg/ml) / ERT): ≤ 0.06 µg/mL
MIC (K. pneumoniae KPC-2; KPC2, read-out: MIC(s) (µg/ml) / ERT): 32 µg/mL (≈ 67.3 µM)

CC(C)(O/N=C(\C(=O)N[C@@H]1C(=O)N2C(C(=O)[O-])=C(C[n+]3ccccc3)CS[C@H]12)c1csc(N)n1)C(=O)O [CAZ, ceftazidime]
MIC (E. coli DH10B pBC SK; DH10BPBCSK, read-out: MIC(s) (µg/ml) / CAZ): 0.25 µg/mL
MIC (E. coli DH10B; DH10B, read-out: MIC(s) (µg/ml) / CAZ): 0.25 µg/mL
MIC ([1]; read-out: MIC(s) (µg/ml) / CAZ): 1 µg/mL
MIC (K. pneumoniae KPC-2; KPC2, read-out: MIC(s) (µg/ml) / CAZ): 64 µg/mL (≈ 117 µM)

CCO/N=C(\C(=O)N[C@@H]1C(=O)N2C(C(=O)[O-])=C(Sc3nc(-c4cc[n+](C)cc4)cs3)CS[C@H]12)c1nsc(N)n1 [TAR, ceftaroline]
MIC (E. coli DH10B pBC SK; DH10BPBCSK, read-out: MIC(s) (µg/ml) / TAR): < 0.06 µg/mL
MIC (E. coli DH10B; DH10B, read-out: MIC(s) (µg/ml) / TAR): 0.06 µg/mL
MIC ([1]; read-out: MIC(s) (µg/ml) / TAR): 1 µg/mL
MIC (K. pneumoniae KPC-2; KPC2, read-out: MIC(s) (µg/ml) / TAR): 512 µg/mL (≈ 847 µM)

CO/N=C(\C(=O)N[C@@H]1C(=O)N2C(C(=O)O)=C(CSc3nc(=O)c(=O)[nH]n3C)CS[C@H]12)c1csc(N)n1 [CRO, ceftriaxone]
MIC (E. coli DH10B pBC SK; DH10BPBCSK, read-out: MIC(s) (µg/ml) / CRO): ≤ 0.06 µg/mL
MIC (E. coli DH10B; DH10B, read-out: MIC(s) (µg/ml) / CRO): ≤ 0.06 µg/mL
MIC ([1]; read-out: MIC(s) (µg/ml) / CRO): 0.5 µg/mL

CO/N=C(\C(=O)N[C@@H]1C(=O)N2C(C(=O)O)=C(COC(C)=O)CS[C@H]12)c1csc(N)n1 [cefotaxime]
MIC (E. coli DH10B pBC SK; DH10BPBCSK, read-out: MIC(s) (µg/ml) / TAX): ≤ 0.06 µg/mL
MIC (E. coli DH10B; DH10B, read-out: MIC(s) (µg/ml) / TAX): ≤ 0.06 µg/mL
MIC ([1]; read-out: MIC(s) (µg/ml) / TAX): 0.25 µg/mL
MIC (K. pneumoniae KPC-2; KPC2, read-out: MIC(s) (µg/ml) / TAX): 64 µg/mL (≈ 141 µM)

CC(=O)OCC1=C(C(=O)O)N2C(=O)[C@@H](NC(=O)Cc3cccs3)[C@H]2SC1 [cephalothin]
MIC (E. coli DH10B pBC SK; DH10BPBCSK, read-out: MIC(s) (µg/ml) / THIN): 4 µg/mL
MIC (E. coli DH10B; DH10B, read-out: MIC(s) (µg/ml) / THIN): 4 µg/mL
MIC ([1]; read-out: MIC(s) (µg/ml) / THIN): 64 µg/mL
MIC (K. pneumoniae KPC-2; KPC2, read-out: MIC(s) (µg/ml) / THIN): 2050 µg/mL (≈ 5170 µM)

CCN1CCN(C(=O)N[C@@H](C(=O)N[C@@H]2C(=O)N3[C@@H]2SC(C)(C)[C@@H]3C(=O)O)c2ccccc2)C(=O)C1=O [piperacillin]
MIC (E. coli DH10B pBC SK; DH10BPBCSK, read-out: MIC(s) (µg/ml) / PIP): 2 µg/mL
MIC (E. coli DH10B; DH10B, read-out: MIC(s) (µg/ml) / PIP): 2 µg/mL
MIC ([1]; read-out: MIC(s) (µg/ml) / PIP): 8 µg/mL
MIC (K. pneumoniae KPC-2; KPC2, read-out: MIC(s) (µg/ml) / PIP): 2050 µg/mL (≈ 3960 µM)
